Laboratory results as given in patent US20240130988A1, “Use of stilbene compounds in the preparation of anti-tumor drugs” (Guangzhou AnHao Pharmaceutical Technology CO., LTD., priority 2022, published 2024).

Tests used:
Format in all cases: in vivo
human lung cancer A549 = experiment: Compound 8 combined with carboplatin, human lung cancer A549 xenograft in nude mice; settings: ip: carboplatin 10 mg/kg, compound 8 200 mg/kg, combination 10 + 200
Source text: (§1) Experimental method: The model of human lung cancer A549 transplant tumor in nude mice was established by subcutaneously inoculating human lung cancer A549 cell lines into the armpits of nude mice. Cells were inoculated in an amount of 1×10^6, and after formation of the transplanted tumors by inoculation, the cells were passed 3 generations in nude mice before use. The vigorous growth of tumor tissue was cut into approximate 1.5 mm^3, and homogenized under sterile conditions, to prepare 1×10^7/mL of cell suspension. 0.1 mL of cell suspension was subcutaneously inoculated into the right armpit of nude mice. For transplanted tumors in nude mice, the diameter was measured with vernier caliper. After the tumor grew to 100 mm^3, the animals were randomly divided into groups, with 6 mice in each group. Using the method of measuring tumor diameter, the anti-tumor effect of test compound was dynamically Observed. Compound 8 was administered at 200 mg/kg by intraperitoneal injection, once every other day, for three weeks; carboplatin was administered at 10 mg/kg by intraperitoneal injection, once every other day, for three weeks. The measurement frequency of tumor diameter was once every three days. The dosage by volume was 0.1 mL/20 g. The mice in the negative control group were given an equal amount of physiological saline by intravenous injection. The effect of combined medicaments was evaluated based on the Q value calculated by Jin's formula: […]
Ea+b represents the tumor inhibitory rate of the combined medicaments, while Ea and Eb represent the tumor inhibitory rates of medicament A and medicament B, respectively. For example, the Q value of 0.85-1.15 means additive action (+), while the Q value of >1.15 means synergistic action (++).

[1] = tested on: human liver cancer Bel7404; experiment: Compound 3 combined with lenvatinib, human liver cancer Bel7404 xenograft in nude mice; settings: po: lenvatinib 10 mg/kg, compound 3 400 mg/kg, combination 10 + 400
Source text: Experimental method: The model of human liver cancer Bel7404 transplant tumor in nude mice was established by subcutaneously inoculating human liver cancer Bel7404 cell lines into the armpits of nude mice. Cells were inoculated in an amount of 1×10^6, and after formation of the transplanted tumors by inoculation, the cells were passed 3 generations in nude mice before use. The vigorous growth of tumor tissue was cut into approximate 1.5 mm^3, and homogenized under sterile conditions, to prepare 1×10^7/mL of cell suspension. 0.1 mL of cell suspension was subcutaneously inoculated into the right armpit of nude mice. For transplanted tumors in nude mice, the diameter of the transplanted tumor was measured with vernier caliper. After the tumor grew to 100 mm^3, the animals were randomly divided into groups, with 6 animals in each group. Using the method of measuring tumor diameter, the anti-tumor effect of test compound was dynamically observed. Compound 3 was orally administered at 400 mg/kg, once a day, for three weeks; lenvartinib was also orally administered at 10 mg/kg, once a day, for two weeks. The measurement frequency of tumor diameter was once every three days. The animals in the negative control group were orally given an equal amount of physiological saline. The effect of combined medicaments was evaluated based on the Q value calculated by the Jin's formula: […]
Ea+b represents the tumor inhibitory rate of the combined medicaments, while Ea and Eb represent the tumor inhibitory rates of medicament A and medicament B, respectively. For example, the Q value of 0.85-1.15 means additive action (+), and the Q value of >1.15 means synergistic action (++).

[2] = tested on: human gastric cancer SGC7901; experiment: Compound 6 combined with paclitaxel, human gastric cancer SGC7901 xenograft in nude mice; settings: paclitaxel 10 mg/kg iv, compound 6 200 mg/kg ip, combination 10 + 200
Source text: as §1, with “gastric” for “lung”, “SGC7901” for “A549”, “Using the method of measuring tumor diameter, the anti-tumor effect of test compound was dynamically Observed. Compound 8 was administered at 200 mg/kg by intraperitoneal injection, once every other day, for three weeks; carboplatin was administered at 10 mg/kg by intraperitoneal injection, once every other day, for three weeks.” left out
Ea+b represents the tumor inhibitory rate of the combined medicaments, while Ea and Eb represent the tumor inhibitory rates of medicament A and medicament B, respectively.

## N.N.O=C([O-])C1(C(=O)[O-])CCC1.[Pt+2] [Carboplatin]
Human lung cancer A549
  RTV (d 21): 6.63 ± 1.42
  Terminal weight: 21.5 ± 0.9 g
  Tumor inhibitory rate %: 48.48%

## COc1cc2nccc(Oc3ccc(NC(=O)NC4CC4)c(Cl)c3)c2cc1C(N)=O [Lenvatinib, reference compound]
[1]
  RTV (d 21): 3.89 ± 1.46
  Terminal weight: 21.8 ± 0.7 g
  Tumor inhibitory rate %: 65.36%

## CC(=O)O[C@H]1C(=O)[C@@]2(C)[C@H]([C@H](OC(=O)c3ccccc3)[C@]3(O)C[C@H](OC(=O)[C@H](O)[C@@H](NC(=O)c4ccccc4)c4ccccc4)C(C)=C1C3(C)C)[C@]1(OC(C)=O)CO[C@@H]1C[C@@H]2O [Paclitaxel, reference compound]
[2]
  RTV (d 21): 7.37 ± 1.76
  Terminal weight: 21.7 ± 0.6 g
  Tumor inhibitory rate %: 45.49%
